Test results taken from EP2739262B1, “USE OF A CB1 RECEPTOR ANTAGONIST AS A WHITENING AND/OR ANTI-BROWNING AGENT FOR KERATIN MATERIAL” (L'OREAL, priority 2011, dated 2013).
Read-outs that look alike come from different tables or passages of the source.

What was measured:
[1] = tested on: mélanocytes épidermiques humains normaux (NHEM); test: Melanin content of melanocytes (spectrophotometry at 450 nm); assay type: cell-based; conditions: result in words; for quantité de mélanine dans les mélanocytes (NHEM): via the CB1 receptor
Procedure: Des mélanocytes épidermiques humains normaux (NHEM) isolés de prépuce et fournis par Promocell (Heidelberg, Allemagne), sont cultivés pendant 24h à 37°C dans une atmosphère humide à 5% de CO2 dans un milieu de culture adapté M2 (Promocell).
L'AEA et les autres composés sont ajoutés directement dans le milieu de culture. 24h après chaque traitement, la viabilité des cellules a été mesurée par l'utilisation du colorant d'exclusion bleu Trypan (Maccarone et al., 2003).
Le mAEA et l'AEA sont testés in vitro à une concentration de 1 µM et comparés. Le mAEA est aussi utilisé à cette concentration quand il est utilisé en combinaison avec le SR1 à 0,1 µM.
La quantité en mélanine présente dans les cellules NHEM est mesurée selon une méthode connue de l'homme du métier (Xiao et al., Arch Dermatol Res 2007; 299 : 245-57). Selon cette méthode, les cellules NHEM sont traitées à la trypsine et lavées deux fois avec un tampon phosphate salin. Ensuite les échantillons sont resuspendus dans 200 µl d'eau MilliQ et 1 ml d'un mélange éthanol : éther (1:1, vol/vol) est ajouté pour éliminer les substances opaques autres que la mélanine. Après 15 minutes, les échantillons sont centrifugés à 600g pendant 5 minutes. Le culot est séché à l'air et dissout dans 200 µl de soude 1N. Les échantillons sont ensuite chauffés à 80°C pendant une heure et refroidis.
La quantité de mélanine est déterminée par spectrophotométrie à 450 nm en utilisant les contrôles standards de mélanine fournis par Sigma Chemical Co., de façon à vérifier la gamme de linéarité de l'essai. La quantité de mélanine est exprimée par rapport au contrôle.
Les résultats donnés sont les moyennes avec leurs écarts type de 3 essais indépendants, chacun réalisé en triplicata. Ils ont été comparés par analyse de variance (ANOVA).

[2] = tested on: epidermes reconstruits pigmentés (ERP); test: Depigmenting effect on reconstructed pigmented epidermis (ERP): melanin quantified by image analysis of Fontana Masson stained sections; assay type: cell-based, humains; conditions: for production de mélanine dans les épidermes pigmentés reconstruits: result in words
Procedure: Des épidermes pigmentés sont reconstruits sur un support collagénique (BPER) à l'aide de mélanocytes et kératinocytes humains normaux.
Les épidermes sont obtenus après 8 jours de reconstruction, les mélanocytes choisis sont de phototype estimé IV.1
Certains épidermes sont traités quotidiennement par le placebo, d'autres par le produit à tester […] à différentes concentrations (0,1 µM et 0,5µM).
Le produit à tester est évalué à deux concentrations en comparaison à son solvant seul (placebo) et à un actif dépigmentant de référence, le lucinol à 500µM. Les épidermes reconstruits ainsi traités sont irradiés ou non avec des UV.^2
Chaque condition expérimentale est réalisée en quadruplicat.
La qualité histologique des épidermes après traitement est évaluée sur coupes histologiques après coloration HES afin de déterminer l'impact du traitement sur les épidermes. Aussi la physiologie des mélanocytes est étudiée pour détecter une éventuelle mélano-cytotoxicité. Si aucune altération histologique ni aucun effet mélano-toxique du produit évalué n'est révélé, une quantification de la pigmentation est effectuée par quantification de la mélanine sur coupes histologiques par analyse d'images
Une quantification de la pigmentation par quantification microscopique de la mélanine est alors réalisée et permet d'objectiver une activité propigmentante du composé à tester.
La mélanine présente dans l'épiderme est colorée sur coupes histologiques (coloration Fontana Masson) puis quantifiée par analyse d'images. Pour cela, chaque épiderme est photographié sur toute sa largeur à l'aide d'un microscope. Environ 10 images sont acquises par épiderme (lumière blanche, grossissement X20).
La surface occupée par la mélanine est quantifiée à l'aide d'un logiciel d'analyse d'image développé à façon. Brièvement, chaque image est segmentée en 4 zones selon leur couleur (lumière, stratum corneum, épiderme vivant et BPER). La mélanine présente dans l'épiderme sous forme de grains noirs est seuillée comme étant la zone la plus sombre de l'épiderme sur le plan rouge. Les pixels occupés par la mélanine dans l'épiderme entier ou les couches vivantes sont ensuite quantifiés.
Cette quantification rend compte de la surface occupée par la mélanine ainsi que de la localisation moyenne de la mélanine dans l'épiderme.
Les résultats ci-dessous sont exprimés en pourcentage de stimulation relative par rapport au témoin cultivé en milieu de co-culture standard.

CCCCC/C=C\C/C=C\C/C=C\C/C=C\CCCC(=O)NCCO [AEA, N-arachidonoylethanolamine]
quantité de mélanine dans les mélanocytes (NHEM) [1]: augmentent de manière significative la quantité de mélanine

CCCCc1ccc(O)cc1O [Lucinol]
activity at 50 µM ([2]; light or radiation study, 360 h, with UV irradiation, 50µM 150mJ/cm^2 UVB SYST D15, irradiated DMSO = 131,914894, read-out: mélanine, % par rapport au témoin (DMSO 1/1000 = 100)): 31.9% | activity at 30 µM ([2]; light or radiation study, 408 h, without UV irradiation, 30µM SYST D17, read-out: mélanine, % par rapport au témoin (DMSO 1/1000 = 100)): 10.5%

Cc1c(C(=O)NN2CCCCC2)nn(-c2ccc(Cl)cc2Cl)c1-c1ccc(Cl)cc1 [SR141716, 5-(4-Chlorophenyl)-1-(2,4-dichloro-phenyl)-4-methyl-N-(piperidin-1-yl)-1H-pyrazole-3-carboxamide]
effets pro-pigmentants du mAEA ([1]; SR1 0,1 µM with mAEA 1 µM): empêche le mAEA d'avoir ses effets pro-pigmentants | activity at 0.1 µM ([2]; light or radiation study, 360 h, with UV irradiation, 0,1µM 150mJ/cm^2 UVB SYST D15, irradiated DMSO = 131,914894, read-out: mélanine, % par rapport au témoin (DMSO 1/1000 = 100)): 76.6% | activity at 0.5 µM ([2]; light or radiation study, 360 h, with UV irradiation, 0,5µM 150mJ/cm^2 UVB SYST D15, irradiated DMSO = 131,914894, read-out: mélanine, % par rapport au témoin (DMSO 1/1000 = 100)): 55.3% | activity at 0.1 µM ([2]; light or radiation study, 408 h, without UV irradiation, 0,1µM SYST D17, read-out: mélanine, % par rapport au témoin (DMSO 1/1000 = 100)): 64.5% | activity at 0.5 µM ([2]; light or radiation study, 408 h, without UV irradiation, 0,5µM SYST D17, read-out: mélanine, % par rapport au témoin (DMSO 1/1000 = 100)): 72.4% | production de mélanine dans les épidermes pigmentés reconstruits ([2]; with UV irradiation, 0,1 and 0,5µM): diminution importante de la production de mélanine | production de mélanine dans les épidermes pigmentés reconstruits ([2]; without UV irradiation, 0,1 and 0,5µM): diminution importante de la production de mélanine

CCCCC/C=C\C/C=C\C/C=C\C/C=C\CCCC(=O)N[C@H](C)CO [mAEA, R(+)-arachidonyl-1'-hydroxy-2'-propylamide]
quantité de mélanine dans les mélanocytes (NHEM) [1]: augmentent de manière significative la quantité de mélanine
